Laboratory results taken from a melting point compilation (Tetko et al.; mined from patent text by program, amines drawn as free bases though some values may be those of a salt).

SMILES	melting point [°C]
CC(C)(C)c1ccc(CNC(=O)NCc2ccc(NS(C)(=O)=O)c([N+](=O)[O-])c2)cc1	177 to 178
CN(C)C(=O)n1nc2cc(Cl)ccc2c1N	178 to 180
Cc1cccc(-c2[nH]c(C(C)C)nc2-c2cccc(-c3ccc(S(=O)(=O)N4CCOCC4)cc3)c2)n1	88 to 92
CC(C)(C)C(O)c1ccc(Oc2ccccc2)cc1 (centres undefined)	79 to 80
NCCc1c[nH]c2ccc(C(N)=O)cc12	173 to 176
Cc1nn(-c2cc(Oc3ccc(O)cc3)c(Cl)cc2F)c(=O)n1C(F)F	162
NC(=O)N(O)Cc1ccc(N2CCC(=O)CC2)cc1	138 to 140
CC(C)(COCc1cccc(Oc2ccccc2)c1)c1ccccc1C(=O)O	98.5 to 102
CN(C)C(=O)N(C)C(=O)Nc1ccccc1	89.5 to 90.5
CCOc1ccccc1COc1ccc2c(c1)C=C(C(=O)O)CCS2(=O)=O	158 to 160
OCc1cnn(C(c2ccccc2)(c2ccccc2)c2ccccc2)c1	181 to 184
O=C(c1ccn2c1CSC2c1cccnc1)c1c[nH]c2cc(-c3ccc(F)cc3)ccc12 (centres undefined)	248 to 252
Cc1cc(C)c2c(-c3cc(C(C)(C)C)c(O)c(C(C)(C)C)c3)n[nH]c2n1	257 to 258
CC(CC(O)=S)(c1ccc(OCc2ccc3ccccc3n2)cc1)c1ccc(OCc2ccc3ccccc3n2)cc1	92 to 94
O=C(CCl)c1ccc(Cl)c(S(=O)(=O)NC2CCCCC2)c1	117
N=C(NO)c1ccccc1-n1cnc2cnc3ccc(-c4ccccc4)cc3c21	249 to 251
CCOc1nc(C)nc(N2CCc3ccccc3CC2)c1C#N	106 to 109
COc1ccc(-c2ccc3[nH]c(C(=O)O)cc3c2)cc1	> 230
O=C(Nc1ccc(-c2nc(-c3ccco3)no2)c(Cl)c1)Oc1ccccc1	184 to 186
COc1cc(C=O)c(OC)cc1Cl	109
CCOC(=O)c1nnn[nH]1	86 to 90

SMILES	melting point [°C]
CCc1cc(Oc2ccc(NC(=O)Nc3ccc(C)cc3)cc2)ncn1	160 to 162
CC(C)(CO)NS(=O)(=O)c1cc(NC(=O)c2cnn3c(C(F)F)cc(-c4ccc(C(F)(F)F)cc4)nc23)c(Cl)s1	233
CCCCCCCN(CCO)c1ccc2c(c1)Oc1cc(=C(C#N)C#N)c3ccccc3c1=N2	155 to 157
Cc1ccc(C2(CNC(=O)Nc3c(C(C)C)cccc3C(C)C)CCCC2)cc1	159 to 161
O=CC1c2ccccc2CCc2ccccc21	76 to 77
O=C(Nc1ccc(-n2nc(C(F)(F)F)cc2C(F)(F)F)cc1)c1cccc(F)c1	148 to 151
CC(C)(C)OC(=O)N1CCC(COc2ccc(C=NO)cc2)CC1	140 to 142
Cn1cc(-c2cc(-c3cnc4c(c3)CC(=O)N4)ccn2)n(-c2ccc(C(C)(C)C#N)cc2)c1=O	263
O=C(OCc1ccccc1)N1CCN(c2ccc(-c3ccnc(Nc4ccc5[nH]nnc5c4)n3)cn2)CC1	247 to 249
CCCN(CCC)c1c([N+](=O)[O-])cc(S(=O)(=O)N(C)C(=O)OC)cc1[N+](=O)[O-]	90 to 94
O=c1c(C2CC2)c(N2CCC(c3ccccc3)CC2)ccn1CC1CC1	202
CC(C)(C)CNC=Nc1ccc(-c2c[nH]cn2)cc1Br	151 to 154
Nc1ccc2c(c1)NC(=O)C(CCCN1CCN(c3ccc(F)cc3)CC1)O2 (centres undefined)	158 to 159
CC(C)=CC(O)C(Cl)(Cl)Cl (centres undefined)	83
CNC(=O)NCCSCc1[nH]cnc1C	158 to 159
CC(=O)OCc1cc([N+](=O)[O-])ccc1N1C(=O)c2ccc(Cl)cc2C1=O	124 to 125
COc1cc2ccc(C(=O)CBr)cc2cc1OC	120 to 122
CCCCOc1ccc(S(=O)(=O)OC2CN(S(=O)(=O)c3ccc(OCCCC)cc3)C2)cc1	90 to 93
CC(C)CCNCCCN1C(=O)C2(COc3cc4c(cc32)CCO4)c2ccccc21 (centres undefined)	98 to 101
COc1ccc(C(=O)CC(Cc2ccccc2)C(=O)O)cc1 (single isomer, unassigned; (+))	93

Further lines, results first:

melting point [°C]	SMILES
74 to 76	CC(C)C(NC(=O)c1ccc(C(=O)NC(CCC(=O)O)C(=O)O)cc1)C(=O)N1CCCC1C(=O)NC(C(=O)C(F)(F)F)C(C)C (mixture of isomers)
235 to 236	CSc1nnc2c(=O)[nH]c(-c3ccccc3OCC3CC3)nc2n1
88 to 91	O=C1c2ccccc2C(=O)N1C(CCCBr)c1ccccc1 (centres undefined)
200 to 203	Cc1ccc([N+](=O)[O-])cc1Nc1nccc(-c2cncnc2)n1
68 to 71	CCCc1c(OCCCCOCCCCOc2c(C(C)=O)ccc(OCC(=O)O)c2CCC)ccc(C(C)=O)c1O
84 to 86	CS(=O)(=O)c1ccc(OCCCCl)cc1
281 to 285	Fc1cccc2c1C1=NCCN1C(Cl)=N2
124 to 125	COc1cc2c(cc1C)CCN(C)C2C1(C2C=CCCC2)CCC1 (centres undefined)
204 to 205	CNC(=O)[C@@H](NC(=O)[C@H](CC(=O)O)CC(C)C)C(C)(C)C
222 to 224	CC1NC(=O)NN=C1c1ccc(N)c(Br)c1 (centres undefined)
172 to 175	CS(=O)(=O)c1ccc(-c2nc(C(F)(F)F)nc(N=[N+]=[N-])c2-c2ccccc2)cc1
145 to 147	Cc1nc(-c2ccccc2)nc(-c2cccc([N+](=O)[O-])c2)c1CN
191 to 194	COC(=O)c1c(NCc2ccc(OC)c(Cl)c2)nc(N2CCC(O)CC2)nc1N1CCn2ccnc2C1
190 to 191	CC(=O)c1cc(C(=O)c2ccccc2Cl)c(N)s1
141 to 142	COCn1ncc2cc(C(=O)NN)ccc21
274 to 276	COc1cc(Nc2c(C#N)cnc3cc(-c4ccccc4)sc23)c(Cl)cc1Cl
195 to 207	Cc1cc2c3c(cc(C)c2[nH]c1=O)C(C)C(C(C)N)O3 (centres undefined)
38 to 40	C=CCSc1ccc(OCCO)nn1
139 to 141	CC(Oc1ccc(Oc2cnc3cc(Cl)ccc3n2)cc1)C(=O)Nc1ccc(OC(F)(F)C(Cl)(Cl)Cl)cc1 (centres undefined)
228 to 233	C/C=C/C[C@@H](C)[C@@H](O)[C@H](NC)C(=O)O

melting point [°C]	SMILES
150 to 152	Cc1ccc(S(=O)(=O)Nc2ccc(C#N)cc2[N+](=O)[O-])cc1
77.9 to 78.2	C=CCOc1ccc(C(=O)C=Cc2cc(OC)c(CCCCCC)c(OC)c2)cc1
152 to 153	Cc1nn(-c2ccc(C(F)(F)F)cn2)cc1COc1cccc(OC(C)(C)C(=O)O)c1
212 to 214	CCCCc1nc2ccc(O)cc2c(=O)n1Cc1ccc(-c2ccccc2-c2nnn[nH]2)cc1
121 to 124	CCOP(=O)(CCCOn1cnc2c(Cl)nc(NC=O)nc21)OCC
139 to 141	Oc1cc2c(cc1O)OCC(c1cccc(C(F)(F)F)c1)C2 (centres undefined)
105 to 107	NC(=O)C(=O)c1ccccc1CCl
73 to 74	CCOc1nc2c(cnn2CC)nc1C#N
69 to 71	CC(=O)CCCC(=O)NC(CC(=O)C(=O)C(C)(Cc1c[nH]c2ccccc12)NC(=O)OC1C2CC3CC(C2)CC1C3)c1ccccc1 (centres undefined)
62 to 65	COC(=O)c1cc(OC)c(OCc2ccccc2)c(OC)c1
175 to 176	CCOCc1nc2c(N)nc3ccc(CCc4ccccc4)cc3c2n1CC(C)(C)O
131 to 132	CC(C)(C)OC(=O)Nc1ncc(-c2ccc(C#Cc3ccccc3)cc2)n1C(=O)OC(C)(C)C
137 to 138	c1ccc(-c2nc3cc(COc4ccc(CCCn5ccnc5)cc4)ccc3o2)cc1
115 to 116	Clc1cn2c(Cl)cnc2cn1
105 to 106	C=C(Cl)C(=O)Nc1ccc(Cl)cc1
259 to 261	COc1cc(C(=O)O)ccc1Cc1csc2ccc(NC(=O)OC3CCCC3)cc12
275 to 277	O=C(Nc1nnn[nH]1)c1csc(-c2ccco2)n1
114 to 115	CCCc1c(O)ccc2ccc(C(=O)OCC)cc12
216	OC1CSC(Oc2cccnc2)C(O)C1O (centres undefined)
87 to 89	CC(=O)c1ccc(S(=O)(=O)NCCN(C)C)cc1

melting point [°C]	SMILES
195 to 196	N#Cc1cc(-c2nc3cncnc3s2)ccc1Oc1ccccc1F
55	CN(CCSC(=O)Cc1ccccc1Nc1c(Cl)cccc1Cl)CC1(S)CCCCC1
84 to 85	CCCC(=O)Oc1cc2c(s1)CCN(C(C(=O)C1CC1)c1ccccc1F)C2 (centres undefined)
75	CC(C)(c1ccc(O)cc1)c1ccc(OC#N)cc1
189 to 191	CC1(C)Oc2ccc([N+](=O)[O-])cc2C(C(N)=O)=C1O
180	Cn1c2c(c3cccc(C(=O)O)c31)CCCC2
129	CCN(c1ccc(C(=O)O)nn1)C(C)c1cc(Br)ccc1OCc1ccccc1 (centres undefined)
233	O=C(O)C1=C(SCc2ccccc2)CCC1
140 to 145	O=C1Nc2ccccc2C12CCC2
85 to 90	COc1ccc(S(=O)(=O)CC(O)(CS(=O)(=O)c2ccc(F)cc2)C(=O)NO)cc1 (centres undefined)
170 to 171	COc1cc2ncnc(Nc3ccc(F)c(Cl)c3)c2cc1OCCCC1OCCO1
142 to 145	COC(=O)c1c(C)nc2c(c1N)c1ccccc1n2Cc1ccc(OC)cc1
174 to 175	Cc1ccc(C(=O)c2ccc(O)cc2)cc1O
159 to 160	Fc1cccc(F)c1-c1cnnc(-c2ccc(-c3ccc(OC(F)(F)F)cc3)cc2)n1
100 to 101	COc1ccc(C(=NOCc2ccccc2)c2cccc([N+](=O)[O-])c2)cc1
106	CON=C(C(=O)O)c1cccs1
110	COc1ccc(-c2nc(-c3cccn3C)[nH]c2-c2ccc(OC)cc2)cc1
120 to 130	COc1cc(C(=O)NS(=O)(=O)c2ccccc2C)ccc1Cc1c(Cl)n(C)c2ccc(CC(C)NC(=O)N(C)C)cc12 (centres undefined)
